The values that follow come from patent US12331040B2 (Karyopharm Therapeutics Inc., priority 2013, dated 2025).

pIC50: −log10 of the molar value. Like-named read-outs stand apart in the source and are kept apart here.

Common to all, as to assay: MTT cell proliferation assay
What all share (type): cell-based

In one test the test system is MS751 cells. The note with it: Homo sapiens, MS751, MS751 cells, approximately 64-72 hours incubation. An outline of the steps: (§1)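 Cytotoxicity was measured by MTT: OD490 of the solubilized formazan after roughly 4 h with MTT reagent, reported as mean percent inhibition relative to the negative control. Test compounds covered eight concentrations between 1 nM and 30 μM, added to 5,000–10,000 cells per well that had attached overnight.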

A further test deals with 3T3 cells. The conditions noted are these: Mus musculus, NIH3T3, approximately 64-72 hours incubation. The gist of the method: as §1
In a further test the test system is Z138 cells. The conditions noted are these: Homo sapiens, Z-138, Z138 cells, approximately 64-72 hours incubation. The gist of the method:
as §1

[1] abbreviates: read-out: MTT Assay IC50 MS-751.
The mark [2] stands for this setting: read-out: MTT Assay IC50, MS-751.
Setting [3] is: read-out: MTT Assay IC50, Z-138.

Consider `Nc1ccc(/C=C/C(=O)NCc2cc3cc(-c4ccc(C(=O)N5CCOCC5)cc4)cc(Cl)c3o2)cc1` [Compound 550, (E)-3-(4-Aminophenyl)-N-((7-chloro-5-(4-(morpholine-4-carbonyl)phenyl)benzofuran-2-yl)methyl)acrylamide], for which the pIC50 in the test with MS751 cells (setting [1]), with 3T3 cells (read-out: MTT Assay IC50 3T3) and with Z138 cells (read-out: MTT Assay IC50 Z-138) was less than 5.00 each time.

Regarding `COc1cc(-c2ccc(C(=O)N3CCC(F)(F)CC3)cn2)cc2cc(CNC(=O)/C=C/c3ccc(N)nc3)oc12` [Compound 651, (E)-3-(6-aminopyridin-3-yl)-N-((5-(5-(4,4-difluoropiperidine-1-carbonyl)pyridin-2-yl)-7-methoxybenzofuran-2-yl)methyl)acrylamide], the pIC50 in the test on MS751 cells (setting [1]) was greater than 7.00; with 3T3 cells (read-out: MTT Assay IC50 3T3), less than 5.00; in the test on Z138 cells (read-out: MTT Assay IC50 Z-138) it was greater than 7.00.

Turning to `Nc1ccc(/C=C/C(=O)NCc2cc3cc(-c4ccc(C(F)(F)F)cc4)cc(-c4ccc(F)cc4)c3o2)cn1` [Compound 692, (E)-3-(6-aminopyridin-3-yl)-N-((7-(4-fluorophenyl)-5-(4-(trifluoromethyl)phenyl)benzofuran-2-yl)methyl)acrylamide], the pIC50 in the test with MS751 cells (setting [2]) is 5.30 to 7.00; with 3T3 cells (read-out: MTT Assay IC50, 3T3) it was less than 5.00; in the test with Z138 cells (setting [3]), 5.30 to 7.00.

As for `Cc1cc(F)ncc1-c1cc(-c2ccc(C(=O)N3CCC(F)(F)CC3)cc2)cc2cc(CNC(=O)/C=C/c3ccc(N)nc3)oc12` [Compound 743, (E)-3-(6-aminopyridin-3-yl)-N-((5-(4-(4,4-difluoropiperidine-1-carbonyl)phenyl)-7-(6-fluoro-4-methylpyridin-3-yl)benzofuran-2-yl)methyl)acrylamide], the pIC50 in the test on MS751 cells (setting [2]) was greater than 7.00; with 3T3 cells (read-out: MTT Assay IC50, 3T3), 5.30 to 7.00; in the test on Z138 cells (setting [3]), greater than 7.00.

As for `O=C(/C=C/c1cccnc1)NCc1cc2cc(-c3ccc(C(=O)N4CCC(F)(F)CC4)cn3)cc(-c3cccc(F)c3)c2o1` [Compound 720, (E)-N-((5-(5-(4,4-difluoropiperidine-1-carbonyl)pyridin-2-yl)-7-(3-fluorophenyl)benzofuran-2-yl)methyl)-3-(pyridin-3-yl)acrylamide], the pIC50 in the test on MS751 cells (setting [2]) is greater than 7.00; with 3T3 cells (read-out: MTT Assay IC50, 3T3) it was greater than 7.00; in the test on Z138 cells (setting [3]), greater than 7.00.

With `Nc1ccc(/C=C/C(=O)NCc2cc3c(-c4ccc(C(=O)N5CCC(F)(F)CC5)cc4)cc(Cl)cc3o2)cn1` [Compound 713, (E)-3-(6-aminopyridin-3-yl)-N-((6-chloro-4-(4-(4,4-difluoropiperidine-1-carbonyl)phenyl)benzofuran-2-yl)methyl)acrylamide], the pIC50 in the test with MS751 cells (setting [2]) is 5.30 to 7.00; with 3T3 cells (read-out: MTT Assay IC50, 3T3) it was 5.00 to 5.30; with Z138 cells (setting [3]), 5.30 to 7.00.

As to `Nc1ccc(/C=C/C(=O)NCc2cc3cc(-c4ccc(C(=O)N5CCNCC5)cc4)cc(Cl)c3o2)cn1` [Compound 601], the pIC50 in the test with MS751 cells (setting [1]) was 5.30 to 7.00; with 3T3 cells (read-out: MTT Assay IC50 3T3) it was less than 5.00; in the test on Z138 cells (read-out: MTT Assay IC50 Z-138), 5.30 to 7.00.

Regarding `Nc1ccc(/C=C/C(=O)NCc2cc3cc(-c4ccc(C(=S)N5CCC(F)(F)CC5)cc4F)cc(-c4ccc(F)cc4)c3o2)cn1` [Compound 758, (E)-3-(6-aminopyridin-3-yl)-N-((5-(4-(4,4-difluoropiperidine-1-carbonothioyl)-2-fluorophenyl)-7-(4-fluorophenyl)benzofuran-2-yl)methyl)acrylamide], the pIC50 with MS751 cells (setting [2]) was greater than 7.00; with 3T3 cells (read-out: MTT Assay IC50, 3T3), less than 5.00; with Z138 cells (setting [3]), greater than 7.00.

Consider `CC1(F)CN(C(=O)c2ccc(-c3cc(C(F)(F)F)c4oc(CNC(=O)/C=C/c5ccc(N)nc5)cc4c3)cc2)C1` [Compound 587, (E)-3-(6-aminopyridin-3-yl)-N-((5-(4-(3-fluoro-3-methylazetidine-1-carbonyl)phenyl)-7-(trifluoromethyl)benzofuran-2-yl)methyl)acrylamide], for which the pIC50 with MS751 cells (setting [1]) was 5.30 to 7.00; in the test with 3T3 cells (read-out: MTT Assay IC50 3T3), less than 5.00; in the test with Z138 cells (read-out: MTT Assay IC50 Z-138), 5.30 to 7.00.

With `Nc1ccc(/C=C/C(=O)NCc2cc3c(-c4ccc(C(=O)N5CCC(F)(F)CC5)cn4)cc(C(F)(F)F)cc3o2)cn1` [Compound 761, (E)-3-(6-aminopyridin-3-yl)-N-((4-(5-(4,4-difluoropiperidine-1-carbonyl)pyridin-2-yl)-6-(trifluoromethyl)benzofuran-2-yl)methyl)acrylamide], the pIC50 in the test with MS751 cells (setting [2]) is less than 5.00; in the test on 3T3 cells (read-out: MTT Assay IC50, 3T3) it was less than 5.00; in the test with Z138 cells (setting [3]) it was less than 5.00.

Take `Nc1ccc(/C=C/C(=O)NCc2cc3cc(-c4ccc(Oc5ccc(F)cc5)cn4)cc(-c4ccc(F)cc4)c3o2)cn1` [Compound 745, (E)-3-(6-aminopyridin-3-yl)-N-((5-(5-(4-fluorophenoxy)pyridin-2-yl)-7-(4-fluorophenyl)benzofuran-2-yl)methyl)acrylamide]: the negative-log IC50 (pIC50) in the test with MS751 cells (setting [2]) was 5.30 to 7.00; in the test on 3T3 cells (read-out: MTT Assay IC50, 3T3), less than 5.00; in the test with Z138 cells (setting [3]) it was 5.30 to 7.00.

With `COc1ccc(Cl)cc1-c1cc(-c2ccc(C(=O)N3CCC(F)(F)CC3)cc2)cc2cc(CNC(=O)/C=C/c3ccc(N)nc3)oc12` [Compound 730, (E)-3-(6-aminopyridin-3-yl)-N-((7-(5-chloro-2-methoxyphenyl)-5-(4-(4,4-difluoropiperidine-1-carbonyl)phenyl)benzofuran-2-yl)methyl)acrylamide], the pIC50 in the test with MS751 cells (setting [2]) was greater than 7.00; in the test on 3T3 cells (read-out: MTT Assay IC50, 3T3), greater than 7.00; in the test on Z138 cells (setting [3]) it was greater than 7.00.

As to `Nc1ccc(/C=C/C(=O)NCc2cc3cc(-c4ccc(C(=O)N5CCC(O)(C(F)(F)F)C5)cc4)cc(C(F)(F)F)c3o2)cn1` (stereo not drawn) [Compound 606, (E)-3-(6-aminopyridin-3-yl)-N-((5-(4-(3-hydroxy-3-(trifluoromethyl)pyrrolidine-1-carbonyl)phenyl)-7-(trifluoromethyl)benzofuran-2-yl)methyl)acrylamide], the results for the pIC50 in the test on MS751 cells (setting [1]), in the test on 3T3 cells (read-out: MTT Assay IC50 3T3) and in the test with Z138 cells (read-out: MTT Assay IC50 Z-138) were 5.30 to 7.00, less than 5.00 and 5.30 to 7.00, respectively.

With `Nc1ccc(/C=C/C(=O)NCc2cc3cc(-c4ccc(C(=O)N5CCC(F)(F)CC5)cn4)cc(-c4ccncc4)c3o2)cn1` [Compound 666, (E)-3-(6-aminopyridin-3-yl)-N-((5-(5-(4,4-difluoropiperidine-1-carbonyl)pyridin-2-yl)-7-(pyridin-4-yl)benzofuran-2-yl)methyl)acrylamide], the pIC50 in the test on MS751 cells (setting [2]) is greater than 7.00; with 3T3 cells (read-out: MTT Assay IC50, 3T3), 5.30 to 7.00; in the test on Z138 cells (setting [3]), greater than 7.00.

On to `CN1CCN(C(=O)c2ccc(-c3cc(Cl)c4oc(CNC(=O)/C=C/c5ccc(N)nc5)cc4c3)cc2)CC1` [Compound 576, (E)-3-(6-aminopyridin-3-yl)-N-((7-chloro-5-(4-(4-methylpiperazine-1-carbonyl)phenyl)benzofuran-2-yl)methyl)acrylamide], for which the pIC50 in the test with MS751 cells (setting [1]) was 5.30 to 7.00; in the test with 3T3 cells (read-out: MTT Assay IC50 3T3), less than 5.00; with Z138 cells (read-out: MTT Assay IC50 Z-138), 5.30 to 7.00.

`Nc1ccc(/C=C/C(=O)NCc2cc3cc(-c4ccc(C(=O)N5CC(F)(F)C5)cc4)cc(C(F)(F)F)c3o2)cn1` [Compound 520, (E)-3-(6-aminopyridin-3-yl)-N-((5-(4-(3,3-difluoroazetidine-1-carbonyl)phenyl)-7-(trifluoromethyl)benzofuran-2-yl)methyl)acrylamide]: the results for the pIC50 in the test on MS751 cells (setting [1]), in the test on 3T3 cells (read-out: MTT Assay IC50 3T3) and with Z138 cells (read-out: MTT Assay IC50 Z-138) were 5.30 to 7.00, less than 5.00 and 5.30 to 7.00, respectively.
